“And” between values parts separate entries of the source, which are not always exact repeats. Equal values may be shown once.
Assays:
Type in all cases: in vivo
Scirpus juncoides = test: Test Example 2: herbicidal activity, application during weed generation in submerged conditions; details: Eighteenth Table; application herbicide amount 320 g/ha
Procedure, shortened: (§1)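 Paddy-type pot test: flooded soil, 4 cm depth, greenhouse 25–30 °C. Emulsion formulation diluted in water, applied to water surface at 1–2 leaf stage; rate expressed as g/ha. Read-out at 3 wk, 0–5 score.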

[1] = system: Echinochloa oryzacola Vasing.; test: as above; details: Eighteenth Table; application herbicide amount 320 g/ha
Procedure, shortened: as §1

Monochoria vaginalis = test: as above; details: Eighteenth Table; application herbicide amount 320 g/ha
Procedure, shortened: as §1

Zea mays = test: Test Example 4: effect on crop by application to foliage (diluvial soil, plastic box); details: foliage application, 320 g/ha
Procedure, shortened: (§2)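 Read-out is a 0–5 visual grade of herbicidal ratio (5: ≥90%, almost withered; 0: ≤5%) taken three weeks after treatment. Compound was applied as a diluted emulsion to stem and leaf parts of 14-day greenhouse-grown plants (25° C. to 30° C.) at rates expressed as g/ha.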

Glycine max = test: as above; details: foliage application, 320 g/ha
Procedure, shortened: as §2

Triticum aestivum = test: as above; details: foliage application, 320 g/ha
Procedure, shortened: as §2

Brassica campestris L. = test: as above; details: foliage application, 320 g/ha
Procedure, shortened: as §2

[2] = system: directly sowed Oryza sativa; test: as above; details: foliage application, 320 g/ha
Procedure, shortened: as §2

[3] = system: Beta vulgaris ssp. vulgaris; test: as above; details: foliage application, 320 g/ha
Procedure, shortened: as §2

| SMILES | B (Scirpus juncoides) herbicidal ratio grade (Scirpus juncoides) | A (Echinochloa oryzicola Vasing.) herbicidal ratio grade [1] | C (Monochoria vaginalis) herbicidal ratio grade (Monochoria vaginalis) | b (Zea mays) effect on crop grade (Zea mays) | c (Glycine max) effect on crop grade (Glycine max) | e (Triticum aestivum) effect on crop grade (Triticum aestivum) | g (Brassica campestris L.) effect on crop grade (Brassica campestris L.) | d (directly sowed Oryza sativa) effect on crop grade [2] | f (Beta vulgaris ssp. vulgaris) effect on crop grade [3] |
| --- | --- | --- | --- | --- | --- | --- | --- | --- | --- |
| Cn1nnnc1NC(=O)c1ccc(C(F)(F)F)n2c(CCS(C)(=O)=O)nnc12 [2-059] | 3 (Herbicidal ratio of 40% or more and less than 70%) | 4 (Herbicidal ratio of 70% or more and less than 90%) | 4 (Herbicidal ratio of 70% or more and less than 90%) | 5 (Herbicidal ratio of 90% or more (almost completely withered)) | 3 (Herbicidal ratio of 40% or more and less than 70%) | 4 (Herbicidal ratio of 70% or more and less than 90%) | 5 (Herbicidal ratio of 90% or more (almost completely withered)) | 5 (Herbicidal ratio of 90% or more (almost completely withered)) | 5 (Herbicidal ratio of 90% or more (almost completely withered)) |
| Cn1nnnc1NC(=O)c1ccc(C(F)(F)F)n2c(-c3ccc(Cl)nc3)nnc12 [2-060] | 4 (Herbicidal ratio of 70% or more and less than 90%) and 3 (Herbicidal ratio of 40% or more and less than 70%) | 5 (Herbicidal ratio of 90% or more (almost completely withered)) | 5 (Herbicidal ratio of 90% or more (almost completely withered)) | 5 (Herbicidal ratio of 90% or more (almost completely withered)) | 2 (Herbicidal ratio of 20% or more and less than 40%) | 4 (Herbicidal ratio of 70% or more and less than 90%) | 5 (Herbicidal ratio of 90% or more (almost completely withered)) | 4 (Herbicidal ratio of 70% or more and less than 90%) | 5 (Herbicidal ratio of 90% or more (almost completely withered)) |
| Cn1nnnc1NC(=O)c1ccc(C(F)(F)F)n2c(-c3cccs3)nnc12 [2-061] | 5 (Herbicidal ratio of 90% or more (almost completely withered)) | 4 (Herbicidal ratio of 70% or more and less than 90%) | 5 (Herbicidal ratio of 90% or more (almost completely withered)) | 5 (Herbicidal ratio of 90% or more (almost completely withered)) | 3 (Herbicidal ratio of 40% or more and less than 70%) | 3 (Herbicidal ratio of 40% or more and less than 70%) | 4 (Herbicidal ratio of 70% or more and less than 90%) | 4 (Herbicidal ratio of 70% or more and less than 90%) | 5 (Herbicidal ratio of 90% or more (almost completely withered)) |
| Cc1cc(-c2nnc3c(C(=O)Nc4nnnn4C)ccc(C(F)(F)F)n23)n(C)n1 [2-062] | 4 (Herbicidal ratio of 70% or more and less than 90%) | 5 (Herbicidal ratio of 90% or more (almost completely withered)) | 5 (Herbicidal ratio of 90% or more (almost completely withered)) | 5 (Herbicidal ratio of 90% or more (almost completely withered)) | 5 (Herbicidal ratio of 90% or more (almost completely withered)) | 4 (Herbicidal ratio of 70% or more and less than 90%) | 5 (Herbicidal ratio of 90% or more (almost completely withered)) | 5 (Herbicidal ratio of 90% or more (almost completely withered)) | 5 (Herbicidal ratio of 90% or more (almost completely withered)) |
| COc1cc(OC)cc(-c2nnc3c(C(=O)Nc4nnnn4C)ccc(C(F)(F)F)n23)c1 [2-063] | 4 (Herbicidal ratio of 70% or more and less than 90%) | 5 (Herbicidal ratio of 90% or more (almost completely withered)) | 5 (Herbicidal ratio of 90% or more (almost completely withered)) | 4 (Herbicidal ratio of 70% or more and less than 90%) | 3 (Herbicidal ratio of 40% or more and less than 70%) | 3 (Herbicidal ratio of 40% or more and less than 70%) | 4 (Herbicidal ratio of 70% or more and less than 90%) | 4 (Herbicidal ratio of 70% or more and less than 90%) | 5 (Herbicidal ratio of 90% or more (almost completely withered)) |
| Cn1nnnc1NC(=O)c1ccc(C(F)(F)F)n2c(-c3cc(Cl)cc(Cl)c3)nnc12 [2-064] | 4 (Herbicidal ratio of 70% or more and less than 90%) | 3 (Herbicidal ratio of 40% or more and less than 70%) | 3 (Herbicidal ratio of 40% or more and less than 70%) | 0 (Herbicidal ratio of 5% or less (almost no effect)) | 0 (Herbicidal ratio of 5% or less (almost no effect)) | 0 (Herbicidal ratio of 5% or less (almost no effect)) | 3 (Herbicidal ratio of 40% or more and less than 70%) | 3 (Herbicidal ratio of 40% or more and less than 70%) | 4 (Herbicidal ratio of 70% or more and less than 90%) |
| COc1ccc(Cc2nnc3c(C(=O)Nc4nnnn4C)ccc(C(F)(F)F)n23)cc1 [2-065] | 4 (Herbicidal ratio of 70% or more and less than 90%) | 5 (Herbicidal ratio of 90% or more (almost completely withered)) | 4 (Herbicidal ratio of 70% or more and less than 90%) | 3 (Herbicidal ratio of 40% or more and less than 70%) | 4 (Herbicidal ratio of 70% or more and less than 90%) | 3 (Herbicidal ratio of 40% or more and less than 70%) | 4 (Herbicidal ratio of 70% or more and less than 90%) | 4 (Herbicidal ratio of 70% or more and less than 90%) | 5 (Herbicidal ratio of 90% or more (almost completely withered)) |
| Cn1nnnc1NC(=O)c1ccc(C(F)(F)F)n2c([S+](C)[O-])nnc12 (stereo not drawn) [2-067] | 4 (Herbicidal ratio of 70% or more and less than 90%) | 5 (Herbicidal ratio of 90% or more (almost completely withered)) | 5 (Herbicidal ratio of 90% or more (almost completely withered)) | 5 (Herbicidal ratio of 90% or more (almost completely withered)) | 4 (Herbicidal ratio of 70% or more and less than 90%) | 4 (Herbicidal ratio of 70% or more and less than 90%) | 5 (Herbicidal ratio of 90% or more (almost completely withered)) | 5 (Herbicidal ratio of 90% or more (almost completely withered)) | 5 (Herbicidal ratio of 90% or more (almost completely withered)) |
| CCCSc1nnc2c(C(=O)Nc3nnnn3C)ccc(C(F)(F)F)n12 [2-068] | 5 (Herbicidal ratio of 90% or more (almost completely withered)) | 5 (Herbicidal ratio of 90% or more (almost completely withered)) | 4 (Herbicidal ratio of 70% or more and less than 90%) | 5 (Herbicidal ratio of 90% or more (almost completely withered)) | 3 (Herbicidal ratio of 40% or more and less than 70%) | 2 (Herbicidal ratio of 20% or more and less than 40%) | 4 (Herbicidal ratio of 70% or more and less than 90%) | 4 (Herbicidal ratio of 70% or more and less than 90%) | 5 (Herbicidal ratio of 90% or more (almost completely withered)) |
| CCC[S+]([O-])c1nnc2c(C(=O)Nc3nnnn3C)ccc(C(F)(F)F)n12 (stereo not drawn) [2-069] | 5 (Herbicidal ratio of 90% or more (almost completely withered)) | 5 (Herbicidal ratio of 90% or more (almost completely withered)) | 5 (Herbicidal ratio of 90% or more (almost completely withered)) | 5 (Herbicidal ratio of 90% or more (almost completely withered)) | 4 (Herbicidal ratio of 70% or more and less than 90%) | 3 (Herbicidal ratio of 40% or more and less than 70%) | 5 (Herbicidal ratio of 90% or more (almost completely withered)) | 4 (Herbicidal ratio of 70% or more and less than 90%) | 5 (Herbicidal ratio of 90% or more (almost completely withered)) |

Source: US9708314B2, “Heterocyclic amide compound” (NISSAN CHEMICAL INDUSTRIES, LTD., priority 2013, dated 2017)
